Reference: US12622913B2, “Folate salts for medical use” (APROFOL AG, priority 2018, dated 2026)

Legend:
[1] = Solubility determination of selected folate salts in solvents; type: physicochemical; conditions: mass-% (m/m), 20° C.; for Solubility in DMSO: solvent DMSO; for Solubility in EtOH: solvent EtOH; for Solubility in MeOH: solvent MeOH; for Solubility in Glycerine: solvent glycerine; for Solubility in i-PrOH: solvent i-PrOH; for Solubility in n-PrOH: solvent n-PrOH
Method: Solubility determination of selected folate salts was in general performed as follows:
A quantity of the salt corresponding to the expected solubility (between 1-100 mg) was provided and mixed with increments of the respective solvent until a solution was formed.

[2] = glycerine; previous data confirmed by the test; cited from earlier work
[3] = cited from earlier work

Row | Compound | Solubility in DMSO [1] | Solubility in EtOH [1] | Solubility in MeOH [1] | Solubility in Glycerine [1] | Solubility in i-PrOH [1] | Solubility in n-PrOH [1] | Solubility of calcium salt, previous data [2] | Solubility in dilute acid or dilute alkali ([3]; dilute acid or dilute alkali) | Solubility in organic solvents ([3]; organic solvents) | Solubility in water ([3]; water at 25° C.)
1 | 5-Formyl-(6S)-tetrahydrofolic acid di acetylcholine salt [FTHF di acetylcholine] | 0.25% | 55.80% | 55.80% | 24.10% | 0.50% | 55.90% |  |  |  | 
2 | CN1c2c([nH]c(N)nc2=O)NC[C@@H]1CNc1ccc(C(=O)N[C@@H](CCC(=O)[O-])C(=O)[O-])cc1.[Ca+2] [calcium salt of 5-methyl-(6S)-tetrahydrofolic acid] |  |  |  |  |  |  | approximately 1% |  |  | 
3 | 5-methyl-tetrahydrofolic acid glucosamine salt [5-MTHF-glucosamine] |  |  |  |  |  |  |  | soluble | insoluble | very soluble
4 | 5-Methyl-(6S)-tetrahydrofolic acid di acetylcholine salt [MTHF di acetylcholine] | 47.62% | 50.00% | >>50% | 24.10% | 50.00% | 50.00% |  |  |  | 
